Assay results reported in PubChem BioAssay AID179 (DTP/NCI, 2004).
Several values for one entry are separate records, joined by “and”; a condition that tells them apart may be missing. Equal entries are not always repeated. Activity calls are given as the source filed them.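 The calls were made as follows: active = compounds giving half or more protection of infected cells from virus-caused growth loss, again on retest; inactive = the rest.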 Where a SMILES comes first, the peptide text is derived from it. The star is where a group is joined. Boc = CC(C)(C)OC(=O)*

Tested on: CEM cells HIV-1 protection, formazan growth assay
Experiment: NCI AIDS Antiviral Assay
Settings: for IC50: measured here: growth of uninfected CEM cells
Method in brief: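 Five concentrations of each compound were applied to infected and uninfected human CEM cells. Protection from HIV-1 was judged from growth measured with a soluble formazan assay.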

## C#CC1(O)CCC2C3CCc4cc(Oc5nc(F)nc(-c6c7ccccc7c7n6CCS7)n5)ccc4C3CC[C@@]21C (some centres not stated)
  EC50: > 200 µM
  IC50: 11.2 µM

## O=C1Nc2ccccc2N2C(=O)CCC12 (configuration not stated)
  EC50: > 1230 µM
  IC50: 617 µM

## COC(=O)c1cc(CC2Cc3cc4c(cc3C2=O)CCC4)cc2c1CCC2 (configuration not stated)
  EC50: 33.1 µM
  IC50: > 200 µM

## O=C(N[C@@H](c1ccccc1)[C@@H](O)C(=O)OCc1ccc([N+](=O)[O-])cc1)c1ccccc1
  EC50: > 200 µM
  IC50: 151 µM

## COc1cccc(-c2cc(=O)c3cc(C)c(C)c(C(=O)O)c3o2)c1
  outcome: inactive

## CC(=O)Nc1cc2ccc(C)nc2c2nc(C)ccc12
  EC50: > 200 µM
  IC50: > 200 µM

## O=C(CP(=O)(O)O)c1cccs1
  EC50: > 1200 µM
  IC50: > 1200 µM

## CCCNC(=O)N(CC)S(=O)(=O)c1ccc(Cl)cc1
  outcome: inactive

## O=C(O)C1CC2(CCC1c1ccccc1)SCCS2 (configuration not stated)
  EC50: > 447 µM
  IC50: > 447 µM

## COC1OC2COC1(OCc1ccccc1)C1OC(C)(C)OC21 (configuration not stated)
  EC50: > 200 µM
  IC50: > 200 µM

## COc1cc2cnc3c4cc(OCc5ccccc5)ccc4ccc3c2cc1OC
  EC50: > 6.61 µM
  IC50: > 6.61 µM

## CCN(CC)CCOC(NC(C)=O)(c1ccccc1)c1ccccc1
  EC50: > 200 µM
  IC50: > 200 µM

## S=C(N/N=C\C=N/NC(=S)N1CCCCC1)N1CCCCC1
  EC50: > 2 µM
  IC50: 0.363 µM

## CN(C)c1nc(=Nc2ccc3c(c2)OCO3)ss1
  outcome: inactive

## CC(=O)OC1(C)C=Cc2ccccc2/C1=N/S(=O)(=O)c1ccccc1 (configuration not stated)
  EC50: > 200 µM
  IC50: 31.6 µM

## CC1(C)CC(=O)C2=C(C1)NC(SCC(=O)O)=C(C#N)C2c1ccc(Br)cc1 (configuration not stated)
  EC50: > 200 µM
  IC50: 178 µM

## CCOC(=O)/C=C1/C(CCCOCc2ccccc2)C2CCCC23CC2(CCN13)OCCO2 (configuration not stated)
  outcome: inactive

## C(=N\Nc1nnc(-c2nnc(N/N=C/c3ccccc3)o2)o1)/c1ccccc1
  EC50: > 200 µM
  IC50: > 200 µM

## COC(=O)C1=C(C(=O)OC)SC(=C(Br)C(=C2SC(C(=O)OC)=C(C(=O)OC)S2)C(=C2SC(C(=O)OC)=C(C(=O)OC)S2)C(Br)=C2SC(C(=O)OC)=C(C(=O)OC)S2)S1
  EC50: > 2.51 µM
  IC50: > 2.51 µM

## Cc1ccccc1NC(=O)C(=O)CC(=O)c1c(C)n([O-])c2ccccc2[n+]1=O
  EC50: > 3.8 µM
  IC50: > 3.8 µM

## NS(=O)(=O)c1nnc(NC(=O)c2cccc([N+](=O)[O-])c2)s1
  EC50: > 200 µM
  IC50: > 200 µM

## O=C(N/N=C1\C(=O)N(c2nccs2)C(=O)C(=O)C1c1nc2ccccc2s1)c1ccccc1O (configuration not stated)
  outcome: inactive

## CCN(CC)C1C(=O)NC1C#Cc1ccccc1 (configuration not stated)
  EC50: > 200 µM
  IC50: 85.1 µM

## CN=C(NC)NCc1ccccc1
  EC50: > 200 µM
  IC50: 178 µM

## COC(=O)C1CCC(=O)N1CN(C(C)=O)c1ccccc1 (configuration not stated)
  EC50: > 200 µM
  IC50: > 200 µM

## O=C1Nc2c(ccc(Cl)c2I)C1=O
  EC50: > 162 µM
  IC50: 30.9 µM

## COc1cc(/C=C2\C(=O)N(C(=O)Cc3ccccc3)N=C2C)ccc1O
  EC50: > 53.7 µM
  IC50: > 53.7 µM

## O=c1c2c3c(sc2nc2n1N=C(c1ccc([N+](=O)[O-])cc1)CS2)CCCC3
  EC50: > 200 µM
  IC50: > 200 µM

## OCC(O)C1[O][Sb][O]C1C(O)CO (configuration not stated)
  EC50: > 200 µM
  IC50: > 200 µM

## CC1(C)C2CCC1(C)C(N=C(N)CSS(=O)(=O)O)C2 (configuration not stated)
  EC50: > 200 µM
  IC50: 49 µM and 30.9 µM

## CSCCC(NC(=O)C(CC(C)C)NC(=O)C1CCCN1C(=O)C(Cc1ccccc1)NC(=O)C(Cc1ccccc1)NC(=O)C(CCC(=O)O)NC(=O)OC(C)(C)C)C(N)=O (configuration not stated) (Boc-EFFPLM-NH2; configuration not given here)
  EC50: > 282 µM
  IC50: > 282 µM

## COc1ccc(CCN2COc3ccc4ccc(=O)oc4c3C2)cc1OC
  EC50: > 200 µM
  IC50: 67.6 µM

## O=C(c1ccccc1)c1c(O)c2ccccc2oc1=O
  outcome: inactive

## CCOC(=O)c1sc(SC)nc1NC(=O)c1ccc([N+](=O)[O-])cc1
  EC50: > 200 µM
  IC50: > 200 µM
